Measurements reported in publication PMC9030691, “Toxicokinetics of β-Amanitin in Mice and In Vitro Drug–Drug Interaction Potential” (Pharmaceutics, 2022).
“Also recorded” adds a separate entry of the source. Where two headings read alike, the source gives them in different places.

Assays:
[1] = tested on: mice; experiment: Death or toxicity observed during the toxicokinetic study; type: in vivo; conditions: male ICR mice
Description: β-amanitin was dissolved in water and administered by iv bolus injection into the tail vein of mice at doses of 0.2 (n = 8), 0.4 (n = 6), and 0.8 (n = 7) mg/kg. Blood samples (approximately 15 μL) were collected from the retro-orbital plexus under light anesthesia with isoflurane at 0.033, 0.083, 0.25, 0.5, 0.75, 1, 1.5, 2, 3, 4, 6, and 8 h after drug administration.
β-amanitin was dissolved in water and administered to mice by gavage at doses of 2 (n = 7), 5 (n = 9), and 10 (n = 7) mg/kg. Blood samples (approximately 15 μL) were collected from the retro-orbital plexus under light anesthesia with isoflurane at 0.033, 0.083, 0.166, 0.25, 0.5, 0.75, 1, 1.5, 2, 4, 6, and 8 h after drug administration. Plasma samples (5 μL each) were harvested by centrifugation at 13,000× g for 3 min at 4 °C and stored at −80 °C until analysis.

[2] = LC-HRMS, cited from earlier work
Description: Concentrations of β-amanitin in biological samples were evaluated following our previous methodology. The standard calibration curves for β-amanitin in mouse plasma ranged from 0.5 to 500 ng/mL and were linear, with a correlation coefficient of 0.9952. The inter- and intra-day accuracy and precision fell within the acceptance criteria (3.1–14.6% of coefficients of variation (CVs) and 92.5–115.0% of accuracy). The extraction recovery and matrix effect of this analytical method were 82.8–88.9% and 93.0–98.6%. Three freeze–thaw cycles (88.7–97.2% accuracy with CVs of 3.6–14.3%), short-term ...

[3] = target: T1, CYP3A4 (Homo sapiens, UniProt P08684); experiment: CYP3A4 inhibition in human liver microsomes; type: in vitro ADME; conditions: ultrapooled human liver microsomes 0.2 mg/mL, 2.5 μM midazolam, β-amanitin 0.1–100 μM, pH 7.4, 37 °C, 15 min, LC-MS/MS, n = 3, read-out: IC50, CYP3A4 midazolam 1′-hydroxylase
T1 construct: from tissue; host or cells: ultrapooled human liver microsomes
Description: (§1) β-amanitin inhibition (IC50 values) of CYP1A2, CYP2A6, CYP2B6, CYP2C8, CYP2C9, CYP2C19, CYP2D6, and CYP3A4 enzyme activities in HLMs were evaluated using LC-MS/MS and CYP substrates as previously described. Each incubation mixture was made up to a volume of 100 μL including HLMs (0.2 mg/mL), 50 mM potassium phosphate buffer (pH 7.4), 1.0 mM NADPH, 10 mM magnesium chloride, various concentrations of β-amanitin (0.1–100 μM), a cocktail of seven CYP probe substrates (50 μM phenacetin for CYP1A2, 2.5 μM coumarin for CYP2A6, 2 μM amodiaquine for CYP2C8, 10 μM diclofenac for CYP2C9, 100 μM [S]-mephenytoin for CYP2C19, 5 μM bufuralol for CYP2D6, and 2.5 μM midazolam for CYP3A4 in acetonitrile), or 50 μM bupropion for CYP2B6. The reactions were initiated with NADPH followed by incubation in a shaking water bath at 37 °C for 15 min with or without 30 min preincubation with NADPH. Reactions were stopped with 50 μL of ice-cold methanol containing ^13C2, ^15N-acetaminophen and d9-1′-hydroxybufuralol (ISs). Incubation mixtures were centrifuged at 13,000× g for 8 min at 4 °C. An aliquot (5 μL) of the supernatant from the reaction mixture was analyzed by the previous LC-MS/MS method.

[4] = target: T2, CYP1A2 (Homo sapiens, UniProt P05177); experiment: CYP1A2 inhibition in human liver microsomes; type: in vitro ADME; conditions: ultrapooled human liver microsomes 0.2 mg/mL, 50 μM phenacetin, β-amanitin 0.1–100 μM, pH 7.4, 37 °C, 15 min, LC-MS/MS, n = 3, read-out: IC50, CYP1A2 phenacetin O-deethylase
T2 construct: from tissue; host or cells: ultrapooled human liver microsomes
T2 sequence (P05177 1-516): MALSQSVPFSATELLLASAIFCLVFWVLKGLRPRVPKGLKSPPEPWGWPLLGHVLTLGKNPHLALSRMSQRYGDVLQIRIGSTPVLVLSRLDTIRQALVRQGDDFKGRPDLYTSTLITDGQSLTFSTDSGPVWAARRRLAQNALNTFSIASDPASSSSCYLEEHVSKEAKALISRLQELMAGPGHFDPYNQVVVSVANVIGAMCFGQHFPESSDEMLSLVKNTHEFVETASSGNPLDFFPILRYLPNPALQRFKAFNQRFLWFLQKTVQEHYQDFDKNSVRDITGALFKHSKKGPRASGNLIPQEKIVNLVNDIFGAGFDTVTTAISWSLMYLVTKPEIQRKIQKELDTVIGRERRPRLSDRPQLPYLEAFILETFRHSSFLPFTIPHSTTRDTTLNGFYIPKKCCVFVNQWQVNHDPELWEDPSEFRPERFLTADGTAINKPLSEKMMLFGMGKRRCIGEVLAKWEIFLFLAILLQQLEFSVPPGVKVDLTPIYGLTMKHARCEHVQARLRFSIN
Description: as §1

[5] = target: T3, CYP2C8 (Homo sapiens, UniProt P10632); experiment: CYP2C8 inhibition in human liver microsomes; type: in vitro ADME; conditions: ultrapooled human liver microsomes 0.2 mg/mL, 2 μM amodiaquine, β-amanitin 0.1–100 μM, pH 7.4, 37 °C, 15 min, LC-MS/MS, n = 3, read-out: IC50, CYP2C8 amodiaquine N-deethylase
T3 construct: enzyme activities in HLMs were evaluated using LC-MS/MS and CYP substrates; from tissue; host or cells: ultrapooled human liver microsomes
T3 sequence (P10632 1-490): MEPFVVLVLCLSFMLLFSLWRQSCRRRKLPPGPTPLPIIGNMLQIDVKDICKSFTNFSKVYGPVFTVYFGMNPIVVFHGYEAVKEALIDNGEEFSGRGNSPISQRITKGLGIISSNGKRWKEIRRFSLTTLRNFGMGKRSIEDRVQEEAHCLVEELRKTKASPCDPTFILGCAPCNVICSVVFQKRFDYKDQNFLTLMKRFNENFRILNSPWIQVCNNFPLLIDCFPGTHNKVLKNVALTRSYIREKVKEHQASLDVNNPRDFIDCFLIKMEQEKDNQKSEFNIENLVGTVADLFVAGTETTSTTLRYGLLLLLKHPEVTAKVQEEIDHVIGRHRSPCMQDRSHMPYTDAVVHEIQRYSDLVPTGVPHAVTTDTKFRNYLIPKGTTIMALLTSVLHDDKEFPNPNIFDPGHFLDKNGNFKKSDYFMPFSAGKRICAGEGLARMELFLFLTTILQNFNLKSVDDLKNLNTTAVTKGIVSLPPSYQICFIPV
Description: as §1

[6] = with 30 min NADPH preincubation

T1 sequence (P08684 whole entry): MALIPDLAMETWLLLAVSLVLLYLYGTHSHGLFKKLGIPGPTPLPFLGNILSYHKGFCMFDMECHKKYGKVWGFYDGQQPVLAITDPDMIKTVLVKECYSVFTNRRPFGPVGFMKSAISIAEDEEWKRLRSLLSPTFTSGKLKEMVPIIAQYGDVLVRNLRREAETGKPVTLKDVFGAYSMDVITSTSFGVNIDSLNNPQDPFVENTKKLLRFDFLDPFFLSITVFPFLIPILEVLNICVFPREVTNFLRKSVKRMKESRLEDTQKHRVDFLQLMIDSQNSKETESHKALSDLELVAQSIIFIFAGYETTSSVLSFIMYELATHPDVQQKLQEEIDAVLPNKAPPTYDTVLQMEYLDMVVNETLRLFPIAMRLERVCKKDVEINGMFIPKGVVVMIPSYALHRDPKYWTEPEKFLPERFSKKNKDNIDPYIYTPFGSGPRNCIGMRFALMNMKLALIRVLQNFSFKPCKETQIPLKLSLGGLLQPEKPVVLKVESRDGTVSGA

CC[C@H](C)[C@@H]1NC(=O)CNC(=O)[C@@H]2Cc3c([nH]c4cc(O)ccc34)[S@+]([O-])C[C@H](NC(=O)CNC1=O)C(=O)N[C@@H](CC(=O)O)C(=O)N1C[C@H](O)C[C@H]1C(=O)N[C@@H]([C@@H](C)[C@@H](O)CO)C(=O)N2 [β-amanitin]
Death or serious toxicity after intravenous bolus administration ([1]; iv bolus via tail vein 0.2, 0.4 and 0.8 mg/kg): did not cause death or serious toxicity; also recorded: did not cause toxicity
Death or serious toxicity after oral administration ([1]; oral gavage 2, 5 and 10 mg/kg): did not cause death or serious toxicity; also recorded: did not cause toxicity
Stability, short-term storage for 2 h on ice (accuracy) ([2]; mouse plasma, CVs of 3.6–7.4%): 94.7–97.9%
Stability, three freeze–thaw cycles (accuracy) ([2]; mouse plasma, CVs of 3.6–14.3%): 88.7–97.2%
Stability, long-term storage for 2 weeks at −80 °C (accuracy) ([2]; mouse plasma, CVs of 3.7–9.1%): 90.4–105.0%
Post-preparation stability for 24 h in 4 °C autosampler (accuracy) ([2]; processed mouse plasma samples, CVs of 6.8–7.5%): 90.7–94.1%
IC50 [3, 6]: > 100 µM
IC50 ([3]; without NADPH preincubation): > 100 µM
IC50 [4, 6]: > 100 µM
IC50 ([4]; without NADPH preincubation): > 100 µM
IC50 [5, 6]: > 100 µM
IC50 ([5]; without NADPH preincubation): > 100 µM
